Experiments:
[1] = Inhibition of thrombin-induced rabbit platelet aggregation after 4 hrs in presence of rabbit liver microsomes; parameters: species or system Oryctolagus cuniculus
[2] = test system: Rattus norvegicus; experiment: Antithrombotic activity in Sprague-Dawley rat venous thrombosis model assessed as reduction of thrombus weight administered intragastrically qd for 3 days measured 2 hrs after last dose; assay type: functional, organism-based
[3] = test system: Mus musculus; experiment: Toxicity in mouse assessed as bleeding time at 22 mg/kg, po administered 90 mins before surgery measured up to 15 mins by tail bleeding test; assay type: organism-based; conditions: in vivo
[4] = target: Prothrombin (Homo sapiens, UniProt P00734); experiment: Inhibition of human thrombin using tosyl-glycyl-prolyl-arginine-4-nitranilide acetate as substrate preincubated for 10 mins by spectrophotometer analysis

IC50 [1] [nM] | IC50 [4] [nM] | SMILES | Activity [2] | Activity [3]
340 |  | CCCCCCOC(=O)NC(=N)c1ccc(NCc2nc3cc(C(=O)N(CCC(=O)OCC)c4ccccn4)ccc3n2C)cc1 [DABIGATRAN ETEXILATE] | Dose-dependent effect | 
27200 |  | CCCCCOC(=O)/N=C(\N)c1ccc(CC2NCCn3c2nc2cc(C(=O)N(CCC(=O)OCC)c4ccccn4)ccc23)cc1 (stereo not given) |  | 
1440 |  | CCCCCCOC(=O)/N=C(\N)c1ccc(CC2NCCn3c2nc2cc(C(=O)N(CCC(=O)OCC)c4ccccc4)ccc23)cc1 (stereo not given) | Dose-dependent effect | Non-toxic
1520 |  | CCOC(=O)CCN(C(=O)c1ccc2c(c1)nc1n2CCN(C(=O)OC(C)C)C1Cc1ccc(/C(N)=N/C(=O)OC(C)C)cc1)c1ccccn1 (stereo not given) |  | 
5960 |  | CCOC(=O)CCN(C(=O)c1ccc2c(c1)nc1n2CCNC1Cc1ccc(/C(N)=N/C(=O)OCc2ccccc2)cc1)c1ccccn1 (stereo not given) |  | 
910 |  | CCCCCCOC(=O)/N=C(\N)c1ccc(CC2c3nc4cc(C(=O)N(CCC(=O)OCC)c5ccccc5)ccc4n3CCN2C(=O)OCCCCCC)cc1 (stereo not given) | Dose-dependent effect | Non-toxic
9660 |  | CCOC(=O)CCN(C(=O)c1ccc2c(c1)nc1n2CCN(C(=O)OCc2ccccc2)C1Cc1ccc(/C(N)=N/C(=O)OCc2ccccc2)cc1)c1ccccn1 (stereo not given) |  | 
1540 |  | CCOC(=O)CCN(C(=O)c1ccc2c(c1)nc1n2CCNC1Cc1ccc(/C(N)=N/C(=O)OC(C)C)cc1)c1ccccc1 (stereo not given) | Dose-dependent effect | Toxic
600 | 9.2 | N=C(N)c1ccc(CC2NCCn3c2nc2cc(C(=O)N(CCC(=O)O)c4ccccn4)ccc23)cc1 (stereo not given) |  | 
640 |  | CCCCCCOC(=O)/N=C(\N)c1ccc(CC2NCCn3c2nc2cc(C(=O)N(CCC(=O)OCc4nc(C)c(C)nc4C)c4ccccn4)ccc23)cc1 (stereo not given) | Dose-dependent effect | Non-toxic
13800 |  | CCOC(=O)CCN(C(=O)c1ccc2c(c1)nc1n2CCN(C(=O)OC(C)(C)C)C1Cc1ccc(/C(N)=N/C(=O)OC(C)(C)C)cc1)c1ccccn1 (stereo not given) |  | 
730 |  | CCCCCCOC(=O)/N=C(\N)c1ccc(CC2NCCn3c2nc2cc(C(=O)N(CCC(=O)OCC)c4ccccn4)ccc23)cc1 (stereo not given) | Dose-dependent effect | Toxic
1210 |  | CCCCCCOC(=O)/N=C(\N)c1ccc(CC2NCCn3c2nc2cc(C(=O)N(CCC(=O)OCc4nc(C)c(C)nc4C)c4ccccc4)ccc23)cc1 (stereo not given) | Dose-dependent effect | Toxic
750 |  | CCCCCCOC(=O)/N=C(\N)c1ccc(CC2c3nc4cc(C(=O)N(CCC(=O)OCC)c5ccccn5)ccc4n3CCN2C(=O)OCCCCCC)cc1 (stereo not given) | Dose-dependent effect | Non-toxic
3420 |  | CCOC(=O)CCN(C(=O)c1ccc2c(c1)nc1n2CCN(C(=O)OCC)C1Cc1ccc(/C(N)=N/C(=O)OCC)cc1)c1ccccn1 (stereo not given) |  | 
17900 |  | CCCCCOC(=O)/N=C(\N)c1ccc(CC2c3nc4cc(C(=O)N(CCC(=O)OCC)c5ccccn5)ccc4n3CCN2C(=O)OCCCCC)cc1 (stereo not given) |  | 
3320 |  | CCOC(=O)CCN(C(=O)c1ccc2c(c1)nc1n2CCNC1Cc1ccc(/C(N)=N/C(=O)OC(C)(C)C)cc1)c1ccccn1 (stereo not given) |  | 
 | 7.48 | N=C(N)c1ccc(CC2NCCn3c2nc2cc(C(=O)N(CCC(=O)O)c4ccccc4)ccc23)cc1 (stereo not given) |  | 
870 |  | CCOC(=O)CCN(C(=O)c1ccc2c(c1)nc1n2CCNC1Cc1ccc(/C(N)=N/C(=O)OC(C)C)cc1)c1ccccn1 (stereo not given) |  | 
4090 |  | CCOC(=O)CCN(C(=O)c1ccc2c(c1)nc1n2CCNC1Cc1ccc(/C(N)=N/C(=O)OCC)cc1)c1ccccn1 (stereo not given) |  | 
860 |  | CCOC(=O)CCN(C(=O)c1ccc2c(c1)nc1n2CCN(C(=O)OC(C)C)C1Cc1ccc(/C(N)=N/C(=O)OC(C)C)cc1)c1ccccc1 (stereo not given) | Dose-dependent effect | 
840 |  | CCOC(=O)CCN(C(=O)c1ccc2c(c1)nc1n2CCNC1Cc1ccc(/C(N)=N/C(=O)OCC(C)C)cc1)c1ccccn1 (stereo not given) |  | 
8720 |  | CCOC(=O)CCN(C(=O)c1ccc2c(c1)nc1n2CCN(C(=O)OCC(C)C)C1Cc1ccc(/C(N)=N/C(=O)OCC(C)C)cc1)c1ccccn1 (stereo not given) |  | 
